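Cells were grown in 96-well plates and exposed to each compound for 48 hours at five concentrations; endpoints were interpolated linearly between bracketing concentrations, or set to the highest concentration if not reached. GI50 = concentration required for 50% inhibition of growth. At the TGI there is no net growth.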
What was measured:
Test in all cases: growth of human tumour cells (NCI), 48 h
OVCAR-4 ovarian = system: OVCAR-4 ovarian
HOP-92 NSCLC = system: HOP-92 NSCLC
NCI-H460 lung = system: NCI-H460 lung
LOX IMVI melanoma = system: LOX IMVI melanoma
SK-MEL-2 melanoma = system: SK-MEL-2 melanoma
ACHN renal = system: ACHN renal
RXF 393 renal = system: RXF 393 renal
SK-OV-3 ovarian = system: SK-OV-3 ovarian
TK-10 renal = system: TK-10 renal
NCI-H23 lung = system: NCI-H23 lung

SMILES	TGI (OVCAR-4 ovarian) [µM]	TGI (HOP-92 NSCLC) [µM]	TGI (NCI-H460 lung) [µM]	TGI (LOX IMVI melanoma) [µM]	TGI (SK-MEL-2 melanoma) [µM]	TGI (ACHN renal) [µM]	TGI (RXF 393 renal) [µM]	TGI (SK-OV-3 ovarian) [µM]	TGI (TK-10 renal) [µM]	TGI (NCI-H23 lung) [µM]	GI50 (OVCAR-4 ovarian) [µM]	GI50 (HOP-92 NSCLC) [µM]	GI50 (NCI-H460 lung) [µM]	GI50 (LOX IMVI melanoma) [µM]	GI50 (NCI-H23 lung) [µM]	GI50 (ACHN renal) [µM]	GI50 (RXF 393 renal) [µM]	GI50 (SK-OV-3 ovarian) [µM]	GI50 (TK-10 renal) [µM]
COc1c(OC(C)=O)ccc(/C=C2\N=C(C)OC2=O)c1[N+](=O)[O-]	> 100	> 100	> 100	> 100	> 100	> 100	> 100	> 100	> 100	–	–	–	–	–	–	–	–	–	–
COC(=O)Nc1nc2ccc(C(=O)c3ccc[nH]3)cc2[nH]1	> 100	–	> 100	> 100	> 100	> 100	4.78	> 63	> 93.6	> 100	–	–	–	–	–	–	–	–	–
Cc1ccc2c(c1)NC(c1ccc(C(=O)O)cc1)c1cccn1-2 (stereo not drawn)	64	–	> 100	> 100	> 100	42.6	50.2	51.8	> 100	> 100	–	–	–	–	–	–	–	–	–
O=C1C2=C(c3ccccc31)C(c1cccc(Cl)c1)NC(=S)N2 (stereo not drawn)	> 100	> 100	> 100	–	> 100	> 100	–	> 100	> 100	> 100	–	–	–	–	–	–	–	–	–
CCCCCCCCCCCCc1ccc(C(=O)/C=C/C(=O)O)cc1	4.46	5.78	27.1	2.81	–	3.15	3.34	30.4	3.64	4.65	2.06	1.95	10.8	1.45	1.89	1.73	1.76	16.2	1.82
